The subject of one assay is mouse testes. The assay is described as follows: H&E histology of testes after X-ray radiation. It is filed as in vivo. To be noted: X-ray 2.5 Gy then injection, 12 hrs. On the procedure:
(§1) Toward this end, ICR mice (3 months old) were injected with 6 mg/kg of Compound 79, Compound 68 or Compound 70, or mice were subjected to X-ray radiation (2.5 Gy) followed by immediately injection of the respective compounds. Control mice were untreated or vehicle treated with or without exposure to X-ray radiation. The testes were removed 12 hrs after treatments and subjected to protein extracts or total RNA preparations for the examination of telomerase activity by TRAP assay, telomerase expression by Western blot and real time PCR. Testes were also taken for immunohistochemical and immunofluorescence analysis with various spermatogenesis markers. Epididymis was also taken for sperm count.

The subject of a further assay is CREM. Nature of the assay: CREM expression in X-ray irradiated testis. It counts as in vivo, mouse. Particulars: X-ray 2.5 Gy then injection, 12 hrs. As for the experimental part: as §1
For another assay, the target named is T1, telomerase (Mus musculus, UniProt O70372).
T1 construct: the ovaries were removed, and proteins extract used for measuring telomerase activity by TRAP assay; from tissue; host or cells: ovary of female ICR mice
T1 sequence (O70372 1-1122): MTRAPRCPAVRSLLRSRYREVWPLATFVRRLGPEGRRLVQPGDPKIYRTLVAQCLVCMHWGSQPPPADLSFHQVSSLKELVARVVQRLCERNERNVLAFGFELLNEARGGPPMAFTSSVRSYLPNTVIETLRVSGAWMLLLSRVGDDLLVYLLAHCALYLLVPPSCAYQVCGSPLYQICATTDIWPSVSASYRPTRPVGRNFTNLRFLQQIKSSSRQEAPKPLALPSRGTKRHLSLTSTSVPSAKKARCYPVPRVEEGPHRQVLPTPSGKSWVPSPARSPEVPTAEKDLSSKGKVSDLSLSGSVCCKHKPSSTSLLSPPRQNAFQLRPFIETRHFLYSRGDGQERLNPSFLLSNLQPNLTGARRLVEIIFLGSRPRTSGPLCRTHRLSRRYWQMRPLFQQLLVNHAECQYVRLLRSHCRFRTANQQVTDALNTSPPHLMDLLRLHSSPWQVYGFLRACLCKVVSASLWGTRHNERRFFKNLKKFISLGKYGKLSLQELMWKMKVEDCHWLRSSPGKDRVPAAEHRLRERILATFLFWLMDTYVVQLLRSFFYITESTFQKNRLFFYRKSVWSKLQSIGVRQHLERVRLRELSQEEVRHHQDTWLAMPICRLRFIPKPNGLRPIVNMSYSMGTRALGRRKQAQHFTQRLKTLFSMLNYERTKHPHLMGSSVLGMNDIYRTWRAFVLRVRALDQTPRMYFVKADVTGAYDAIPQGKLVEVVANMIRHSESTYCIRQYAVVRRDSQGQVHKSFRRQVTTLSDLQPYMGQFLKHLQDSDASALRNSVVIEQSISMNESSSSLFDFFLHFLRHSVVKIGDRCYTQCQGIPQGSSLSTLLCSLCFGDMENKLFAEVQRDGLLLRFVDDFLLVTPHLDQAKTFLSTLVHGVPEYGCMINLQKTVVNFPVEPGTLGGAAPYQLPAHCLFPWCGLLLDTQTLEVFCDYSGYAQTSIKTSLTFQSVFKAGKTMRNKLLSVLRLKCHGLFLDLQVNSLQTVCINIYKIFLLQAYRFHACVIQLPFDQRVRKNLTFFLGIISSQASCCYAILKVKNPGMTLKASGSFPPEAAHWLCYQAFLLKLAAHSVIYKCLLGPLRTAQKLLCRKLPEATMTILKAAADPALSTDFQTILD
The assay is described as follows: Telomerase activity in mouse ovary by TRAP assay after s.c. injection. It is filed as in vivo. Particulars: single dose 6 mg/Kg s.c., 12 hours. As for the experimental part:
The ovaries were homogenized and centrifuged at 1200 RPM at 4° C. for 10 min, then suspended in CHAPS buffer (10 mM Tris-HCl pH-7.0, 1 mM MgCl2, 1 mM EDTA […], 0.1 mM PMSF, 0.5% 3 [(3 Cholamidopropyl)dimethylammonio]-propanesulfonic acid [CHAPS] and 10% glycerol) on ice for 30 min and centrifuged again at 13500 RPM at 4° C. for 30 min, the supernatant was collected. Total proteins concentration was determined using the Bio-Rad protein assay kit (Bio-Rad Laboratories, Germany).
Telomerase activity in mice ovary was evaluated by a slight modification of the TRAP assay [Grin, Y., T. Admoni, and E. Priel, Telomerase activity in the various regions of mouse brain: non-radioactive telomerase repeat amplification protocol (TRAP) assay. J Vis Exp, 2014 (91): p. e51865]. […] These products were separated on a 4.5% high-resolution agarose mini-gel and detected with Gel-Red solution (X10000 stock solution diluted to X3 working solution with 0.01M NaCl) for 20 minutes. […] Quantification of Telomerase Activity
TRAP assay products were quantified by densitometric analysis using the EZQuant software (EZQuant Ltd. Rehovot, Israel) and normalized to IS (Internal standard). […] The data which were normalized to the IS were calculated as % from the positive control values in each experiment. […]

The subject of another assay is female mice. The assay is described as follows: Progesterone levels in mouse serum. Particulars: compared to DMSO or UT, 12 hrs post treatment, P, E, and M stages. It counts as in vivo. On the procedure:
Blood samples were taken from the sacrificed mouse and following centrifugation (3800 rpm, 10 min) the serum was sent to the clinical endocrinology laboratory (Soroka University Medical Center, Beer-Sheva, Israel) for determination of progesterone levels.

Structures are written as SMILES.

With `CC(c1cc(Br)c(O)c(Br)c1)(c1cc(Br)c(O)c(Br)c1)c1cc(Br)c(O)c(Br)c1` [Compound 68], the “morphology of testicular tissue (H&E)” value in the assay with mouse testes is “protected the spermatogonia cells layer from the damaging effects of X-ray and the morphology of the testicular tissue remained intact”. The “CREM expression in testis” value with CREM was “restored the expression of the spermatogenesis markers”. In addition, at telomerase (all examined ages (10 days, 18 days, 1 month, 3 months)), the “increase of telomerase activity in mouse ovary” value is given as “up to 1.5 fold”.
As for `CCOCc1cc(C(C)(c2cc(COCC)c(O)c(COCC)c2)c2cc(COCC)c(O)c(COCC)c2)cc(COCC)c1O` [Compound 79], in the assay on female mice, the “increase in the secretion of progesterone” value was “up to 5 folds”. Besides, the “telomerase activity in mouse ovary at various ages” value on telomerase (ages 10 days to 3 months) was “significantly increased telomerase activity only in the ovary of 3 months old mouse”.
